The structures appear in SMILES notation.

The target in the assay is Histone-binding protein RBBP4/Polycomb protein EED/Polycomb protein SUZ12/Zinc finger protein AEBP2 (Human, UniProt O75530+Q09028+Q15022+Q6ZN18). The assay is described as follows: Enzymatic Activity Assay.
Chain of Histone-binding protein RBBP4/Polycomb protein EED/Polycomb protein SUZ12/Zinc finger protein AEBP2 (O75530 whole entry): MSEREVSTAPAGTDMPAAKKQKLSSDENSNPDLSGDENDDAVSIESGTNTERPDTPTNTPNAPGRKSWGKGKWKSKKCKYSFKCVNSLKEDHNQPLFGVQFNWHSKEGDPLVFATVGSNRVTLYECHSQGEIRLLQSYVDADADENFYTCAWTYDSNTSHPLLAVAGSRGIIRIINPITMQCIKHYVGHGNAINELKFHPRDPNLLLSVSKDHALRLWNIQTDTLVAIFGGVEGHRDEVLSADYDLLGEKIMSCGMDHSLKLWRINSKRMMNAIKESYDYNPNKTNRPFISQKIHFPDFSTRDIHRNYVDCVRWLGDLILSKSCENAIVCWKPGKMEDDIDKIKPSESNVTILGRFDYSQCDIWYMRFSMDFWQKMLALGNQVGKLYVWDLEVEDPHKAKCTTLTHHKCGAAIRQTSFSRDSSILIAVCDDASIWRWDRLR
Chain of Histone-binding protein RBBP4/Polycomb protein EED/Polycomb protein SUZ12/Zinc finger protein AEBP2 (Q15022 whole entry): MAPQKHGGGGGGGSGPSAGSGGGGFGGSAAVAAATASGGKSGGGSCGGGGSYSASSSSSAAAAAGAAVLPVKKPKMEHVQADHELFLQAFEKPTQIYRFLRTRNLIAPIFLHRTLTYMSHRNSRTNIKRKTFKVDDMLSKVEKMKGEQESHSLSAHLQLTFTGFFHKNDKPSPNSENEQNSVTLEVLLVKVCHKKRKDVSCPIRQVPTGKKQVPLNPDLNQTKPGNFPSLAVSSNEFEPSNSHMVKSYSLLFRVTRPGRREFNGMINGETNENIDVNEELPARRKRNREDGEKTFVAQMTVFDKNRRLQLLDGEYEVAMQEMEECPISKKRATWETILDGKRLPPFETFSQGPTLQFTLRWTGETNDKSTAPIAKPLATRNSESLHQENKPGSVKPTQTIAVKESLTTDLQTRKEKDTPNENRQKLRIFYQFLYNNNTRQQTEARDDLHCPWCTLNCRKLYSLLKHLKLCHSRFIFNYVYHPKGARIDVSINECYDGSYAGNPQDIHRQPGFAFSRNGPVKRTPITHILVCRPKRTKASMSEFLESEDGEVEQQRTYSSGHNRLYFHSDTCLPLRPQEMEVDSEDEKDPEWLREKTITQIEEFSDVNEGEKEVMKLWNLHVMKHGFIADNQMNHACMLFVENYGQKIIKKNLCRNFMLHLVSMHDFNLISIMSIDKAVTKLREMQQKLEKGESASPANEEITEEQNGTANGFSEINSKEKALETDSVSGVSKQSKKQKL
Chain of Histone-binding protein RBBP4/Polycomb protein EED/Polycomb protein SUZ12/Zinc finger protein AEBP2 (Q6ZN18 whole entry): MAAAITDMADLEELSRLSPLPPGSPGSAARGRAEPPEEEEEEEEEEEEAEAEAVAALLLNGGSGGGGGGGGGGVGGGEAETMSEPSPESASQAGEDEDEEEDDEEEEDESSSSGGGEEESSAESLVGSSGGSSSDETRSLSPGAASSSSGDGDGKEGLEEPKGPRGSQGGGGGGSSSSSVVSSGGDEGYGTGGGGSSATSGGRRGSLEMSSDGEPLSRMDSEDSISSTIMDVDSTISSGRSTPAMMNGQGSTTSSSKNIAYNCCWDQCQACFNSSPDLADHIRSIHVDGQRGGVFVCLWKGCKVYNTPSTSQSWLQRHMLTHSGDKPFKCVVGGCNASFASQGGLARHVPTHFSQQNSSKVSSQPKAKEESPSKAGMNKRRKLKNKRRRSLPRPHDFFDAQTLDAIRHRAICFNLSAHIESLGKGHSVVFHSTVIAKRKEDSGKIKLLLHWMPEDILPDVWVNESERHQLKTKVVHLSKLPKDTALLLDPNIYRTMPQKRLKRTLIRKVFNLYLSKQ
Chain of Histone-binding protein RBBP4/Polycomb protein EED/Polycomb protein SUZ12/Zinc finger protein AEBP2 (Q09028 whole entry): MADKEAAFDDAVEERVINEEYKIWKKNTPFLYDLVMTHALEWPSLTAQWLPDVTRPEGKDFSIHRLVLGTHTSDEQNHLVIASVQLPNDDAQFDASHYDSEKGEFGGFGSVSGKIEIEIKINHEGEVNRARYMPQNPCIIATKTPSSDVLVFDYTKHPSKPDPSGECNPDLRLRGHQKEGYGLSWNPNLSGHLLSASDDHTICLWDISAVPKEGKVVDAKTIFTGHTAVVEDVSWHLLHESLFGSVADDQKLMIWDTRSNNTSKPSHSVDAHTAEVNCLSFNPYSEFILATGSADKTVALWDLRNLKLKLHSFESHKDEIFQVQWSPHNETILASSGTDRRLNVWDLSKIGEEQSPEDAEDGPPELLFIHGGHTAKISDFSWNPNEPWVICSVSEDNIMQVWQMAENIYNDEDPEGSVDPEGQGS

Method: An aliquot of each serial dilution of test compound was added to deep 384 well plate using Acoustic Technology instrument (Echo 550, LabCyte) containing reaction buffer (50 mM Tris-HCl (pH 8), 0.01% Brij35, 1 mM EDTA, 1 mM DTT, 1 mM PMSF and 1% DMSO), 10 nM purified PRC2 complex and 0.05 mg/ml core histone H3 in a 5 μl volume. The reaction was mixed gently and then pre-incubated for 20 min at 30° C. The enzymatic reaction was initiated by adding 1 uM S-Adenosyl-L-[methyl-3H]methionine and incubated for 1 hr at 30° C. After 1 hr, the reaction product was detected using a filter binding method and the amount of tritiated H3 core histone was quantitated using a scintillation counter.

As a reminder, the IC50 is the concentration that gives 50% inhibition. In turn, `Cc1nc(N2CCOCC2)ccc1-c1cnc(NCc2c(F)ccc3c2CCO3)n2cc(C#N)nc12` [US11485738, Example 56] gave an IC50 of under 100 nM. The figure for `Cc1cc(S(C)(=O)=O)ccc1-c1cnc(NCc2c(F)ccc3c2CCO3)n2cc(C#N)nc12` [US11485738, Example 87] is under 100 nM.

The values above are taken from BindingDB's records for patent US11485738 (MIRATI THERAPEUTICS, INC., 2022).
